# Marks after values point to notes of the source that are not given here.
# Key:
# AH109A cells [1] = assay: proliferative activity of hepatoma cells by [3H]thymidine incorporation; assay type: cell-based, rat
# Protocol: The proliferative activity of the AH109A cells was evaluated by measuring the incorporation of [^3H]thymidine (20 Ci/mmol, New England Nuclear, Boston, USA) into acid-insoluble fraction, namely, DNA [Yagasaki K., Tanabe T., Ishihara K., and Funabiki R., (1992) Modulation of the proliferation of cultured hepatoma cells by urea cycle-related amino acids. In: Murakami, H., Shirahata S., and Tachibanana H., (ed.) Animal Cell Technology: Basic and Applied Aspects. Vol. 4 (pp. 257-263). Kluwer Academic Publisher, Dordrecht/Boston/London]. […]
# The plate was washed twice with 400 μl of 10% TCA; the wash solution was then recovered in Maruemu tubes, and was again subjected to centrifugally separation for 5 minutes at 3000 rpm (1500×g), 4° C., and then solubilized in 0.2N NaOH in 0.1% SDS. was added to the 48-well plate and the cells remaining in the Maruemu tubes at the respective rates of 150 μl and 50 μl, and these were allowed to stand for 30 minutes inside an incubator at 37° C., to dissolve the cells completely. […] 5 ml of an NT scintillator (700 ml of toluene, 300 ml of nonion, 4 g of DPO) was added, and 150 μl of 1N HCl was further added thereto, and it was confirmed that the liquid of the preparation thoroughly shaken had become transparent; then, the radioactivity of the preparation was measured with a liquid scintillation spectrophotometer (LS6500; Beckman, Fullerton, Calif., USA). […]
# AH109A cells [2] = assay: solid tumor growth and metastasis in hepatoma-bearing rats fed ENL-supplemented diets; assay type: in vivo, rat; details: for Total number of metastasis/group / Hepatoma weight: 21 days; for Hepatoma weight: mean ± SEM of 11 rats
# Protocol: Male Donryu rats of four weeks old were purchased from NRC Haruna, Gumma, Japan, and were preliminarily fed for 6 days in quintuple cages in a room with a controlled environment with light period of 8:00 to 20:00, room temperature of 22±1° C., and relative humidity of 60±5%. For the first 3 days, the animals were fed ad libitum with a stock pellet diet (CE-2; CLEA Japan, Tokyo), and for the next 3 days, they were fed a basal diet containing 20% milk casein (20C) (Table 1) ad libitum together with tap water in a glass container. Following the completion of this preparatory raising, the rats were divided into three groups (11 animals per group) with equal average body weights of the respective groups were equal, and 1.0×10^7 of AH109A cells suspended in PBS (−) were transplanted in the back of all the rats. From the time immediately after transplantation, in the respective experimental groups, the animals were fed the experimental diets shown in Table 2. During the experimental period, the body weight, food intake and solid tumor size (sum of length, width and height) were measured everyday. On the day that the animals were killed, animals were deprived of experimental diets at 9:00, but freely given water until they were killed 4 hours later. Blood was collected from carotid, and the liver and solid tumors were excised. The collected blood was allowed to stand for approximately 2 hours at room temperature, and then centrifuged for 10 minutes at 3000 rpm (1750×g), 4° C., to obtain serum. This blood serum was frozen and stored at −20° C. The livers and solid tumors were washed with physiological saline, blotted on filter paper, and weighed. Furthermore, feces from the 19th to 21st days after transplantation were collected, and these feces were frozen and stored at −20° C. for the measurement of the amounts of steroids excreted from the body. The length, width and height of the solid tumors were measured, and the sums of these values were used as an index of solid tumor size.
smiles,measurement,setting,value
"O=C1OCC(Cc2cccc(O)c2)C1Cc1cccc(O)c1 (stereo not drawn) [Enterolactone, enterolactone]",proliferation of AH109A cells,"AH109A cells [1]; ENL 50 μM, in vitro",almost completely suppressed
same,"inhibitory effect on proliferation, AH109A cells compared with normal M-cells",AH109A cells [1]; in vitro comparison,stronger inhibitory effect against AH109A cells than normal M-cells
same,"solid tumor sizes (sum of length, width and height)","AH109A cells [2]; 100 ppm ENL diet, 7th, 8th and 18th to 21 days after transplantation, versus control diet",significant suppression
same,metastasis over 21 days following transplantation,AH109A cells [2]; ENL diet groups (10 and 100 ppm),no metastasis was observed
same,solid tumor weight,AH109A cells [2]; both ENL ingestion groups versus control,significant decrease
same,Total number of metastasis/group,AH109A cells [2]; diet 10 ppm,0
same,Hepatoma weight,AH109A cells [2]; diet 10 ppm,3.4 ± 1^b g/rat
same,Total number of metastasis/group,AH109A cells [2]; diet 100 ppm,0
same,Hepatoma weight,AH109A cells [2]; diet 100 ppm,1.1 ± 0.2^b g/rat
